In PubChem BioAssay (NCI):
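Briefly, cells in 96-well plates were exposed to five compound concentrations for 48 h, and endpoints were estimated by linear interpolation. Abbreviation: GI50, concentration required for 50% inhibition of growth. The concentration for full growth arrest is given as TGI.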

How the values were obtained:
Assay in all cases: inhibition of tumour cell growth, NCI panel, 48 h
[1] = tested on: SNB-19 CNS
[2] = tested on: ACHN renal
[3] = tested on: NCI-H522 lung
[4] = tested on: IGROV1 ovarian
[5] = tested on: M14 melanoma
[6] = tested on: UACC-62 melanoma
[7] = tested on: SF-539 CNS
[8] = tested on: RXF-631 renal
[9] = tested on: NCI/ADR-RES ovarian
[10] = tested on: SR leukemia
[11] = tested on: UACC-257 melanoma
[12] = tested on: HCT-116 colon
[13] = tested on: 786-0 renal
[14] = tested on: SN12C renal
[15] = tested on: SW-620 colon
[16] = tested on: RPMI-8226 leukemia
[17] = tested on: KM20L2 colon
[18] = tested on: A549 NSCLC
[19] = tested on: HCT-15 colon
[20] = tested on: MDA-MB-435
[21] = tested on: OVCAR-8 ovarian
[22] = tested on: KM12 colon
[23] = tested on: MALME-3M melanoma
[24] = tested on: HOP-18 NSCLC
[25] = tested on: HOP-62 NSCLC
[26] = tested on: HT29 colon
[27] = tested on: XF 498 CNS
[28] = tested on: MOLT-4 leukemia
[29] = tested on: DU-145 prostate
[30] = tested on: MDA-MB-231 breast
[31] = tested on: SK-OV-3 ovarian
[32] = tested on: SF-268 CNS
[33] = tested on: HOP-92 NSCLC
[34] = tested on: UO-31 renal
[35] = tested on: NCI-H460 lung
[36] = tested on: SNB-78 CNS
[37] = tested on: OVCAR-4 ovarian
[38] = tested on: DMS 273 small cell lung
[39] = tested on: SK-MEL-2 melanoma
[40] = tested on: HCC-2998 colon
[41] = tested on: OVCAR-3 ovarian
[42] = tested on: LXFL 529 NSCLC
[43] = tested on: DMS 114 small cell lung
[44] = tested on: LOX IMVI melanoma
[45] = tested on: SNB-75 CNS
[46] = tested on: K-562 leukemia
[47] = tested on: CAKI-1 renal
[48] = tested on: MCF7 breast
[49] = tested on: BT-549 breast
[50] = tested on: A498 renal
[51] = tested on: HL-60(TB) leukemia
[52] = tested on: EKVX NSCLC
[53] = tested on: COLO 205 colon
[54] = tested on: SF-295 CNS
[55] = tested on: T-47D breast
[56] = tested on: U251 CNS
[57] = tested on: PC-3 prostate
[58] = tested on: SK-MEL-5 melanoma
[59] = tested on: HS 578T breast
[60] = tested on: DLD-1 colon
[61] = tested on: CCRF-CEM leukemia
[62] = tested on: NCI-H23 lung
[63] = tested on: OVCAR-5 ovarian
[64] = tested on: RXF 393 renal
[65] = tested on: SK-MEL-28 melanoma
[66] = tested on: TK-10 renal
[67] = tested on: M19-MEL melanoma
[68] = tested on: NCI-H226 lung

## Nc1[nH]c(=O)nc2c1cnn2Cc1ccccc1
[1]
  TGI: > 100 µM
[2]
  TGI: > 100 µM
[3]
  GI50: > 100 µM
  TGI: > 100 µM
[4]
  TGI: > 100 µM
[5]
  TGI: > 100 µM
[6]
  GI50: > 100 µM
  TGI: > 100 µM
[7]
  TGI: > 100 µM
[8]
  TGI: > 100 µM
[9]
  GI50: > 100 µM
  TGI: > 100 µM
[10]
  TGI: > 100 µM
[11]
  TGI: > 100 µM
[12]
  TGI: > 100 µM
[13]
  GI50: > 100 µM
  TGI: > 100 µM
[14]
  TGI: > 100 µM
[15]
  TGI: > 100 µM
[16]
  TGI: > 100 µM
[17]
  TGI: 3.05 µM
[18]
  TGI: > 100 µM
[19]
  TGI: > 100 µM
[20]
  GI50: > 100 µM
  TGI: > 100 µM
[21]
  TGI: > 100 µM
[22]
  TGI: > 100 µM
[23]
  TGI: > 100 µM
[24]
  TGI: > 100 µM
[25]
  GI50: > 100 µM
  TGI: > 100 µM
[26]
  TGI: > 100 µM
[27]
  TGI: > 100 µM
[28]
  TGI: > 100 µM
[29]
  GI50: > 100 µM
  TGI: > 100 µM
[30]
  GI50: > 100 µM
  TGI: > 100 µM
[31]
  GI50: > 100 µM
  TGI: > 100 µM
[32]
  TGI: > 100 µM
[33]
  TGI: > 100 µM
[34]
  TGI: > 100 µM
[35]
  TGI: > 100 µM
[36]
  TGI: 3.08 µM
[37]
  TGI: > 100 µM
[38]
  TGI: > 100 µM
[39]
  TGI: > 100 µM
[40]
  GI50: > 100 µM
  TGI: > 100 µM
[41]
  GI50: > 100 µM
  TGI: > 100 µM
[42]
  TGI: > 100 µM
[43]
  TGI: > 100 µM
[44]
  TGI: > 100 µM
[45]
  TGI: > 100 µM
[46]
  TGI: > 100 µM
[47]
  TGI: > 100 µM
[48]
  GI50: > 100 µM
  TGI: > 100 µM
[49]
  GI50: 36.2 µM
  TGI: > 100 µM
[50]
  TGI: > 100 µM
[51]
  TGI: > 100 µM
[52]
  TGI: > 100 µM
[53]
  TGI: > 100 µM
[54]
  TGI: > 100 µM
[55]
  GI50: > 100 µM
  TGI: > 100 µM
[56]
  TGI: 2.73 µM
[57]
  GI50: > 100 µM
  TGI: > 100 µM
[58]
  TGI: > 100 µM
[59]
  GI50: > 100 µM
  TGI: > 100 µM
[60]
  TGI: > 100 µM
[61]
  TGI: > 100 µM

## C[Si]1(C)C(c2ccccc2)=CC2C(c3ccccc3)(c3ccccc3)OC21c1ccccc1 (centres undefined)
[1]
  TGI: > 100 µM
[2]
  TGI: > 100 µM
[3]
  TGI: > 100 µM
[4]
  TGI: > 100 µM
[5]
  TGI: > 100 µM
[6]
  TGI: > 100 µM
[7]
  TGI: > 100 µM
[8]
  TGI: > 100 µM
[62]
  TGI: > 100 µM
[10]
  TGI: > 100 µM
[11]
  TGI: > 100 µM
[12]
  TGI: > 100 µM
[13]
  TGI: > 100 µM
[14]
  TGI: > 100 µM
[15]
  TGI: > 100 µM
[16]
  TGI: > 100 µM
[17]
  TGI: > 100 µM
[18]
  TGI: > 100 µM
[19]
  TGI: > 100 µM
[63]
  TGI: > 100 µM
[22]
  TGI: > 100 µM
[23]
  TGI: > 100 µM
[24]
  TGI: > 100 µM
[25]
  TGI: > 100 µM
[26]
  TGI: > 100 µM
[27]
  TGI: > 100 µM
[28]
  TGI: > 100 µM
[31]
  TGI: > 100 µM
[32]
  TGI: > 100 µM
[33]
  TGI: > 100 µM
[34]
  TGI: > 100 µM
[35]
  TGI: > 100 µM
[37]
  TGI: > 100 µM
[38]
  TGI: > 100 µM
[64]
  TGI: > 100 µM
[65]
  TGI: > 100 µM
[66]
  TGI: > 100 µM
[39]
  TGI: > 100 µM
[40]
  TGI: > 100 µM
[67]
  TGI: > 100 µM
[41]
  TGI: > 100 µM
[42]
  TGI: > 100 µM
[43]
  TGI: > 100 µM
[44]
  TGI: > 100 µM
[45]
  TGI: > 100 µM
[46]
  TGI: > 100 µM
[47]
  TGI: > 100 µM
[50]
  TGI: > 100 µM
[51]
  TGI: > 100 µM
[52]
  TGI: > 100 µM
[53]
  TGI: > 100 µM
[54]
  TGI: > 100 µM
[68]
  TGI: > 100 µM
[56]
  TGI: > 100 µM
[58]
  TGI: > 100 µM
[60]
  TGI: > 100 µM
[61]
  TGI: > 100 µM
